{"source": "patent US20070148689A1", "about": "“Compositions and methods for the prevention, treatment and detection of tuberculosis and other diseases” (priority 2000, published 2007)", "origin": "cited, not measured here", "key": {"CODH": {"target": "CODH (Neomoorella thermoacetica, UniProt P27988)", "sequence (P27989 whole entry)": "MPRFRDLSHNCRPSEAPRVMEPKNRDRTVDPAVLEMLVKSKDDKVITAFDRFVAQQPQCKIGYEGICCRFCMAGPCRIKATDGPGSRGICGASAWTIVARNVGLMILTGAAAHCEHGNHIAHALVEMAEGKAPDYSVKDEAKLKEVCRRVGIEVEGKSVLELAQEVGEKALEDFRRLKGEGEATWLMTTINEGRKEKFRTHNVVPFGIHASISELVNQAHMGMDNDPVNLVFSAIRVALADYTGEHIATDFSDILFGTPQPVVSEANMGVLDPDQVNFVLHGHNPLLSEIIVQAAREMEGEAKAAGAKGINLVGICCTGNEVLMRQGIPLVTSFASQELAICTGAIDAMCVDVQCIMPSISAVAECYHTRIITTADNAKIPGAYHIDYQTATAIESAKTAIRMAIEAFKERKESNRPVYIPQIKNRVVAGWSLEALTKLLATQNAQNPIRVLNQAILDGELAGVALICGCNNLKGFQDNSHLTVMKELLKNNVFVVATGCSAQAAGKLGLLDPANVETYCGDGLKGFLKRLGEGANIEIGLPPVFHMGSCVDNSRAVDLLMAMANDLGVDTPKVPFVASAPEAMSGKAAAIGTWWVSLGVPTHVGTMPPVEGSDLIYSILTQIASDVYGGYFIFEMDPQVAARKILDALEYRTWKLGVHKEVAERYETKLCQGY", "sequence (P27988 whole entry)": "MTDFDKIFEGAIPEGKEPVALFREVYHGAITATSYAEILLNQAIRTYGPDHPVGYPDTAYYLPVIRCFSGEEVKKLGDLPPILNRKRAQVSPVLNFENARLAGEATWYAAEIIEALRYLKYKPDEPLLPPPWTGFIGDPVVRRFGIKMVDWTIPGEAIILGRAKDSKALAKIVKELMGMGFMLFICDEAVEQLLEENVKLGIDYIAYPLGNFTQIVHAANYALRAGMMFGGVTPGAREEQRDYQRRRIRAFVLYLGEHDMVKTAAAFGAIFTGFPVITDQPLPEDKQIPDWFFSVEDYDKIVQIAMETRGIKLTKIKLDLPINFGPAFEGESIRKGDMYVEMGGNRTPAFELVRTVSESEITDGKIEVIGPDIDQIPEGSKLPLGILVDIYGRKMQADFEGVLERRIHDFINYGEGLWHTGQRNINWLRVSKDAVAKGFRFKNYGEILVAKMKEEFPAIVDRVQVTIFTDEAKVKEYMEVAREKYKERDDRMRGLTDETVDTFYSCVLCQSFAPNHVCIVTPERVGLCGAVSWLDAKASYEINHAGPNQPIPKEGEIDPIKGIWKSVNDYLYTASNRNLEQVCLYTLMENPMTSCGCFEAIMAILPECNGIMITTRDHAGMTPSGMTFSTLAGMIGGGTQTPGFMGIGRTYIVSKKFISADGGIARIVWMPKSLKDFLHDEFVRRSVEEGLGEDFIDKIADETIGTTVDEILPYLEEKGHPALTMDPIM"}, "[1]": {"conditions": "chelator by intraperitoneal injection shortly after oral or intraperitoneal administration of nickel"}, "[2]": {"conditions": "10% DTPA in an oil-in-water emulsion"}, "CO(L)-deficient CODH": {"target": "CO(L)-deficient CODH (Rhodospirillum rubrum, UniProt P31896)", "sequence (P31896 whole entry)": "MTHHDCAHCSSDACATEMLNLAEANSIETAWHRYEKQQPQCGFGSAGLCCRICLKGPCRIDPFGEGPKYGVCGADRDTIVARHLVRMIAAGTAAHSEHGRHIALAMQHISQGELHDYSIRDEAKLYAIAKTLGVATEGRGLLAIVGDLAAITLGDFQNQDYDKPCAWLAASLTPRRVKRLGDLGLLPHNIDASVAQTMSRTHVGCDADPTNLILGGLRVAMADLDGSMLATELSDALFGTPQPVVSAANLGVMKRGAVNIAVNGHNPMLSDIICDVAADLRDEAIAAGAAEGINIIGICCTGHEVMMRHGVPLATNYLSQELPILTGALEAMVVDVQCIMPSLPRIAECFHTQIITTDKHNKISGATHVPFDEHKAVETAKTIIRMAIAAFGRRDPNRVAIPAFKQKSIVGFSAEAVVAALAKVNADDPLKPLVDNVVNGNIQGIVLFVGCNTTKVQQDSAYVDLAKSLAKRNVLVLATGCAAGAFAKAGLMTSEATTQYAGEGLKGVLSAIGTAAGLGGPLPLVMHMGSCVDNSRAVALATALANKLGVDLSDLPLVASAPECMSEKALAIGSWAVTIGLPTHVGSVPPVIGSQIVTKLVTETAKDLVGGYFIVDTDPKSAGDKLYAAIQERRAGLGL"}}, "data": [{"smiles": "c1cnc2c(c1)ccc1cccnc12", "note": "[1,10phenanthroline]", "values": [{"measurement": "Removal of the Ni ion in the A-cluster of CODH", "setting": "CODH", "value": "selectively removed"}, {"measurement": "Synthesis of acetyl-coenzyme A by CODH without this Ni", "setting": "CODH; after Ni removal by the chelator", "value": "can't catalyze"}]}, {"smiles": "CCN(CC)C(=S)[S-].[Na+]", "note": "[DDC, Sodium diethyldithiocarbamate]", "values": [{"measurement": "Whole-body retention of nickel", "setting": "[1]", "value": "increased"}]}, {"smiles": "O=C(O)[C@@H](S)[C@@H](S)C(=O)O", "note": "[DMSA, Meso-2,3-dimercaptosuccinic acid]", "values": [{"measurement": "Water solubility", "value": "water-soluble"}, {"measurement": "Toxicity", "setting": "orally-administered metal chelator", "value": "non-toxic"}]}, {"smiles": "O=C(O)CN(CCN(CC(=O)O)CC(=O)O)CCN(CC(=O)O)CC(=O)O", "note": "[DTPA, diethylenetriaminepentaacetic acid]", "values": [{"measurement": "Preventive effect in nickel-sensitized patients", "setting": "[2]", "value": "preventive effect"}]}, {"smiles": "CCN(CC)C(=S)SSC(=S)N(CC)CC", "note": "[TTD, Tetraethylthiuram disulphide]", "values": [{"measurement": "Whole-body retention of nickel", "setting": "[1]", "value": "increased"}]}, {"smiles": "CC(=NO)C(C)=NO", "note": "[dimethylglyoxime]", "values": [{"measurement": "Removal of Ni from CO(L)-deficient CODH by treatment", "setting": "CO(L)-deficient CODH", "value": "can be removed"}]}]}
